Drawing on US10065963B2 (Incyte Corporation, priority 2015, dated 2018), this text covers IC50 for 21 compounds.

In general, IC50 refers to the concentration that gives 50% inhibition.

Each structure is given as a SMILES string. Where a name gives a salt, the structure may show the parent alone.

The target in assay [1] is PI3Kγ (p110γ) Recombinant Human Protein (Homo sapiens (Human), UniProt P48736). Put plainly: PI3K-γ scintillation proximity assay. The format is biochemical. Particulars: 2 μM ATP, 20 μM PIP2. Background: Scintillation proximity formats need no separation of bound from free tracer.
Chain of PI3Kγ (p110γ) Recombinant Human Protein (P48736 whole entry): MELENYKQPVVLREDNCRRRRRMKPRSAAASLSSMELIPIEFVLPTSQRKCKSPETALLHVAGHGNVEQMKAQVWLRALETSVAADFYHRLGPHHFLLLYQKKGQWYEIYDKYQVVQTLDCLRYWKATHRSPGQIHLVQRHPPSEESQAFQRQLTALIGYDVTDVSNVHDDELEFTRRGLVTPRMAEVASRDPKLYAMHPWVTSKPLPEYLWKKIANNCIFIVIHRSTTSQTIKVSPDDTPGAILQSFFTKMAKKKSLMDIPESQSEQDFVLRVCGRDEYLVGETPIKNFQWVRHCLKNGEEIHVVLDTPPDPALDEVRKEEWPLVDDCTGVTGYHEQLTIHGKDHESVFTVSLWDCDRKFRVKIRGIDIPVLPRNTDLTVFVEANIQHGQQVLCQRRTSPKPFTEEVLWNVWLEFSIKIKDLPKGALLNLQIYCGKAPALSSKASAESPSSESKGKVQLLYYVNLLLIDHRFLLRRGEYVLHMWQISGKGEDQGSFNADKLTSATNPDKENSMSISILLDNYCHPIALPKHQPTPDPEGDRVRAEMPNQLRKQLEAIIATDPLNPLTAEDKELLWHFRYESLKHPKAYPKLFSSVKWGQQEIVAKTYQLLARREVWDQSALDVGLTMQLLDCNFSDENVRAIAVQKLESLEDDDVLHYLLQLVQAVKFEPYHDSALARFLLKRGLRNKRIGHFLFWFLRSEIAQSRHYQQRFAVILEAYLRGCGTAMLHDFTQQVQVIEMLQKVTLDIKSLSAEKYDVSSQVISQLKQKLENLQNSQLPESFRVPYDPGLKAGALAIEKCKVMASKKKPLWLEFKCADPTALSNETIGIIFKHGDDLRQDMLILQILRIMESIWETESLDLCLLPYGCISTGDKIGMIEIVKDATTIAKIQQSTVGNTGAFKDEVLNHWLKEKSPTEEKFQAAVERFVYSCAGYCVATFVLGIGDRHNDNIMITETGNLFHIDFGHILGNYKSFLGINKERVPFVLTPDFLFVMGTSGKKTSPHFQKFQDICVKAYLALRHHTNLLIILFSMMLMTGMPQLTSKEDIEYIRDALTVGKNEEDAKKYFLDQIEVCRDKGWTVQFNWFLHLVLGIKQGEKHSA
Assay [2] has as its target PI3Kδ (p110δ/p85α) Recombinant Human Protein (Homo sapiens (Human), UniProt O00329). Put plainly: PI3Kδ scintillation proximity assay. The format is biochemical. Conditions: 2 μM ATP, 20 μM PIP2.
Assay [3] deals with Phosphorylated Ribosomal Protein S6 (RPS6) in THP-1 cells. Put plainly: THP-1 RPS6 ELISA assay. Conditions: Homo sapiens, THP-1, THP-1 cells, 10 nM MCP-1; read-out: PI3Kγ_THP1_RPS6_ELISA IC50. In kind it is cell-based, human.

Chain of PI3Kδ (p110δ/p85α) Recombinant Human Protein (O00329 whole entry): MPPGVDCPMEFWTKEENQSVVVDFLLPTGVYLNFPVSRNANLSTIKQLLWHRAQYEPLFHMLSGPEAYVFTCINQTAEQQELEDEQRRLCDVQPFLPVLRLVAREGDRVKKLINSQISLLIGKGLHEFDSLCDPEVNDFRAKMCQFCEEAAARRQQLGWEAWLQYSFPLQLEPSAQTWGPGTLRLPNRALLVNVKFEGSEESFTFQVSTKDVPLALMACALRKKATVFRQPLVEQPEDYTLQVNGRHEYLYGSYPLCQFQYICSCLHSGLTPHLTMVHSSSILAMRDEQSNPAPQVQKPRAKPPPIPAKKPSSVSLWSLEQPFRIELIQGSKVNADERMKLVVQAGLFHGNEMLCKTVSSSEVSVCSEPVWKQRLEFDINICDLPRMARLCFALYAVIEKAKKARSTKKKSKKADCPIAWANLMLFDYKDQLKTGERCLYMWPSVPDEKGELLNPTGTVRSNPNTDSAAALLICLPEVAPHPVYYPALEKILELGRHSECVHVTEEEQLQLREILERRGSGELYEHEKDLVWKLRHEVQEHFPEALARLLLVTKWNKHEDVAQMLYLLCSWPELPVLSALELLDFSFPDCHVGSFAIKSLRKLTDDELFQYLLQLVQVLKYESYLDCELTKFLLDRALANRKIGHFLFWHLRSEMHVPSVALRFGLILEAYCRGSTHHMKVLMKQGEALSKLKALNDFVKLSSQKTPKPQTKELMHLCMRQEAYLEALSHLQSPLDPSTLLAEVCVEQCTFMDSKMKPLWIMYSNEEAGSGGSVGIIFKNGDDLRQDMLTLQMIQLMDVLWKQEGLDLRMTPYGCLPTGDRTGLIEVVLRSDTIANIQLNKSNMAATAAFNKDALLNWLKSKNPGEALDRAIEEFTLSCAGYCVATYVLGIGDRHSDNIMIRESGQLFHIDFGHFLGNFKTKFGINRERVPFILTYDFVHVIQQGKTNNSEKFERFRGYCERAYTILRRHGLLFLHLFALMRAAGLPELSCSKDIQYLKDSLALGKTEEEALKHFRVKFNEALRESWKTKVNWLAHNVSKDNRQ
Chain of PI3Kδ (p110δ/p85α) Recombinant Human Protein (P27986 whole entry partner): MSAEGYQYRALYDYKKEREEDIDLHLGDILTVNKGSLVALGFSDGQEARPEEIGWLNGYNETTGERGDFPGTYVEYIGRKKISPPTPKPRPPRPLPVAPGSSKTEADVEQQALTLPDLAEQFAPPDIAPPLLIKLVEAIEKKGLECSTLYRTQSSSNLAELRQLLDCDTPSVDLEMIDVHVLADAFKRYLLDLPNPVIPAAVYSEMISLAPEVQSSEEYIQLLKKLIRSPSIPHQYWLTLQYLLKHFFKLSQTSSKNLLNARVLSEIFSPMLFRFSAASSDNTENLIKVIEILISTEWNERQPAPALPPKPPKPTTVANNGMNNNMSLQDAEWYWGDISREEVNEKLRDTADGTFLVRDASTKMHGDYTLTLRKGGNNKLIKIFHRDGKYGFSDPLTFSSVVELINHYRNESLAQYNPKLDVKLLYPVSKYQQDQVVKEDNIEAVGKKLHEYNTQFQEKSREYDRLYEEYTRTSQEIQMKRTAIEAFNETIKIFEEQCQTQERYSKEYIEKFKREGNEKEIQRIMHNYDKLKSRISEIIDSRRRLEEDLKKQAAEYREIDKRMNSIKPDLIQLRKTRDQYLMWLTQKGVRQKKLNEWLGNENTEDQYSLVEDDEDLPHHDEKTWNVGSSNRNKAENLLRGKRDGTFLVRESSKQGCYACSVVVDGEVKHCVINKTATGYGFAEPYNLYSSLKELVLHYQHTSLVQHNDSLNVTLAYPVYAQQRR

Consider `CC(NC(=O)c1c(N)nn2cccnc12)c1cc(Cl)c2cncn2c1-c1cc[nH]n1` (racemic) [Example 130, 2-Amino-N-{1-[8-chloro-5-(1H-pyrazol-3-yl)imidazo[1,5-a]pyridin-6-yl]ethyl}pyrazolo[1,5-a]pyrimidine-3-carboxamide trifluoroacetate salt], for which the IC50 in assay [1] is below 100 nM; in assay [2] it was below 500 nM; in assay [3], below 500 nM.
Regarding `CC(NC(=O)c1c(N)nn2cccnc12)c1cc(Cl)c2cncn2c1-c1cncc(S(C)(=O)=O)c1` (racemic) [Example 131, 2-Amino-N-(1-{8-chloro-5-[5-(methylsulfonyl)pyridin-3-yl]imidazo[1,5-a]pyridin-6-yl}ethyl)pyrazolo[1,5-a]pyrimidine-3-carboxamide trifluoroacetate salt], the IC50 is below 100 nM in assay [1], below 100 nM in assay [2] and below 500 nM in assay [3].
Turning to `CC(NC(=O)c1c(N)nn2cccnc12)c1cc(Cl)c2cncn2c1-c1ccccn1` (racemic) [Example 133, 2-Amino-N-[1-(8-chloro-5-pyridin-2-ylimidazo[1,5-a]pyridin-6-yl)ethyl]pyrazolo[1,5-a]pyrimidine-3-carboxamide trifluoroacetate salt], the IC50 in assay [1] was below 100 nM; in assay [2], below 500 nM; in assay [3] it was below 500 nM.
On to `CNS(=O)(=O)c1ccc(-c2c(C(C)NC(=O)c3c(N)nn4cccnc34)cc(Cl)c3cncn23)cc1` (racemic) [Example 135, 2-Amino-N-[1-(8-chloro-5-{4-[(methylamino)sulfonyl]phenyl}imidazo[1,5-a]pyridin-6-yl)ethyl]pyrazolo[1,5-a]pyrimidine-3-carboxamide trifluoroacetate salt], for which the IC50 in assay [1] was below 100 nM; in assay [2], below 500 nM; in assay [3], above 1000 nM.
As for `CC(NC(=O)c1c(N)nn2cccnc12)c1cc(Cl)c2cncn2c1-c1ccc(S(C)(=O)=O)cc1` (racemic) [Example 136, 2-Amino-N-(1-{8-chloro-5-[4-(methylsulfonyl)phenyl]imidazo[1,5-a]pyridin-6-yl}ethyl)pyrazolo[1,5-a]pyrimidine-3-carboxamide trifluoroacetate salt], the values for the IC50 in assay [1], in assay [2] and in assay [3] were below 100 nM, below 500 nM and above 1000 nM, respectively.
Consider `CC(NC(=O)c1c(N)nn2cccnc12)c1cc(Cl)c2cncn2c1-c1cncc(C#N)c1` (racemic) [Example 137, 2-Amino-N-{1-[8-chloro-5-(5-cyanopyridin-3-yl)imidazo[1,5-a]pyridin-6-yl]ethyl}pyrazolo[1,5-a]pyrimidine-3-carboxamide trifluoroacetate salt], for which the IC50 in assay [1] was below 100 nM; in assay [2], below 100 nM; in assay [3], below 500 nM.
As for `CC(NC(=O)c1c(N)nn2cccnc12)c1cc(Cl)c2cncn2c1-c1cnccn1` (racemic) [Example 138, 2-Amino-N-[1-(8-chloro-5-pyrazin-2-ylimidazo[1,5-a]pyridin-6-yl)ethyl]pyrazolo[1,5-a]pyrimidine-3-carboxamide trifluoroacetate salt], the figures for the IC50 in assay [1], in assay [2] and in assay [3] were below 100 nM, below 500 nM and below 1000 nM, respectively.
For `CC(NC(=O)c1c(N)nn2cccnc12)c1cc(Cl)c2cncn2c1-c1cn[nH]c1` (racemic) [Example 139, 2-Amino-N-{1-[8-chloro-5-(1H-pyrazol-4-yl)imidazo[1,5-a]pyridin-6-yl]ethyl}pyrazolo[1,5-a]pyrimidine-3-carboxamide trifluoroacetate salt], the results for the IC50 in assay [1], in assay [2] and in assay [3] were below 100 nM, below 100 nM and below 500 nM, respectively.
As to `CC(NC(=O)c1c(N)nn2cccnc12)c1cc(Cl)c2cncn2c1-c1cnn(C)c1` (racemic) [Example 140, 2-Amino-N-{1-[8-chloro-5-(1-methyl-1H-pyrazol-4-yl)imidazo[1,5-a]pyridin-6-yl]ethyl}pyrazolo[1,5-a]pyrimidine-3-carboxamide trifluoroacetate salt], the IC50 in assay [1] was below 100 nM; in assay [2], below 100 nM; in assay [3], below 500 nM.
With `CC(NC(=O)c1c(N)nn2cccnc12)c1cc(Cl)c2cncn2c1N1CCN(S(C)(=O)=O)CC1` (racemic) [Example 141, 2-Amino-N-(1-{8-chloro-5-[4-(methylsulfonyl)piperazin-1-yl]imidazo[1,5-a]pyridin-6-yl}ethyl)pyrazolo[1,5-a]pyrimidine-3-carboxamide trifluoroacetate salt], the IC50 in assay [1] was below 100 nM; in assay [2] it was below 500 nM; in assay [3], below 500 nM.
As for `CC(NC(=O)c1c(N)nn2cccnc12)c1cc(Cl)c2cncn2c1N1CCCC1` (racemic) [Example 142, 2-Amino-N-[1-(8-chloro-5-pyrrolidin-1-ylimidazo[1,5-a]pyridin-6-yl)ethyl]pyrazolo[1,5-a]pyrimidine-3-carboxamide trifluoroacetate salt], the IC50 was below 100 nM in assay [1], below 100 nM in assay [2] and below 500 nM in assay [3].
For `COC1CCN(c2c(C(C)NC(=O)c3c(N)nn4cccnc34)cc(Cl)c3cncn23)CC1` (racemic) [Example 143, 2-Amino-N-{1-[8-chloro-5-(4-methoxypiperidin-1-yl)imidazo[1,5-a]pyridin-6-yl]ethyl}pyrazolo[1,5-a]pyrimidine-3-carboxamide], the half-inhibitory concentration (IC50) in assay [1] is below 100 nM; in assay [2], below 500 nM; in assay [3] it was below 1000 nM.
With `CC(NC(=O)c1c(N)nn2cccnc12)c1cc(Cl)c2cncn2c1N1CCOCC1` (racemic) [Example 145, 2-Amino-N-[1-(8-chloro-5-morpholin-4-ylimidazo[1,5-a]pyridin-6-yl)ethyl]pyrazolo[1,5-a]pyrimidine-3-carboxamide trifluoroacetate salt], the IC50 was below 100 nM in assay [1], below 100 nM in assay [2] and above 1000 nM in assay [3].
For `CC(NC(=O)c1c(N)nn2cccnc12)c1cc(Cl)c2cncn2c1N1CCC(O)CC1` (racemic) [Example 146, 2-Amino-N-{1-[8-chloro-5-(4-hydroxypiperidin-1-yl)imidazo[1,5-a]pyridin-6-yl]ethyl}pyrazolo[1,5-a]pyrimidine-3-carboxamide trifluoroacetate salt], the values for the IC50 in assay [1], in assay [2] and in assay [3] were below 100 nM, below 100 nM and below 500 nM, respectively.
On to `CC(NC(=O)c1c(N)nn2cccnc12)c1cc(Cl)c2cncn2c1N1CCC(Br)CC1` (racemic) [Example 147, 2-Amino-N-{1-[5-(4-bromopiperidin-1-yl)-8-chloroimidazo[1,5-a]pyridin-6-yl]ethyl}pyrazolo[1,5-a]pyrimidine-3-carboxamide trifluoroacetate salt], for which the IC50 is below 100 nM in assay [1], below 500 nM in assay [2] and below 500 nM in assay [3].
With `CC(NC(=O)c1c(N)nn2cccnc12)c1cc(Cl)c2cncn2c1N1CCNS(=O)(=O)CC1` (racemic) [Example 149, 2-Amino-N-{1-[8-chloro-5-(1,1-dioxido-1,2,5-thiadiazepan-5-yl)imidazo[1,5-a]pyridin-6-yl]ethyl}pyrazolo[1,5-a]pyrimidine-3-carboxamide], the IC50 is below 100 nM in assay [1], below 100 nM in assay [2] and below 500 nM in assay [3].
As to `CC(NC(=O)c1c(N)nn2cccnc12)c1cc(Cl)c2cncn2c1N1CCCS(=O)(=O)CC1` (racemic) [Example 151, 2-Amino-N-{1-[8-chloro-5-(1,1-dioxido-1,4-thiazepan-4-yl)imidazo[1,5-a]pyridin-6-yl]ethyl}pyrazolo[1,5-a]pyrimidine-3-carboxamide trifluoroacetate salt], the IC50 in assay [1] was below 100 nM; in assay [2], below 100 nM; in assay [3] it was below 500 nM.
Take `CC(NC(=O)c1c(N)nn2cccnc12)c1cc(Cl)c2cncn2c1N1CCN(C)C(=O)C1` (racemic) [Example 154, 2-Amino-N-{1-[8-chloro-5-(4-methyl-3-oxopiperazin-1-yl)imidazo[1,5-a]pyridin-6-yl]ethyl}pyrazolo[1,5-a]pyrimidine-3-carboxamide trifluoroacetate salt]: the figures for the IC50 in assay [1], in assay [2] and in assay [3] were below 500 nM, below 500 nM and below 1000 nM, respectively.
On to `CC(NC(=O)c1c(N)nn2cccnc12)c1cc(Cl)c2cncn2c1N1C[C@H](O)C[C@@H](O)C1` (mixture of isomers) [Example 155A, 2-Amino-N-(1-{8-chloro-5-[(3R,5R)-3,5-dihydroxypiperidin-1-yl]imidazo[1,5-a]pyridin-6-yl}ethyl)pyrazolo[1,5-a]pyrimidine-3-carboxamide trifluoroacetate salt], for which the IC50 is below 100 nM in assay [1], below 500 nM in assay [2] and below 500 nM in assay [3].
With `Cc1ncc2c(Cl)cc(C(C)NC(=O)c3c(N)nn4cccnc34)c(N3CCCS(=O)(=O)CC3)n12` (racemic) [Example 158, 2-Amino-N-(1-(8-chloro-5-(1,1-dioxido-1,4-thiazepan-4-yl)-3-methylimidazo[1,5-a]pyridin-6-yl)ethyl)pyrazolo[1,5-a]pyrimidine-3-carboxamide trifluoroacetate salt], the results for the IC50 in assay [1], in assay [2] and in assay [3] were below 100 nM, below 500 nM and below 500 nM, respectively.
Regarding `CC(NC(=O)c1c(N)nn2cccnc12)c1cc(Cl)c2c(Cl)ncn2c1N1CCS(=O)(=O)CC1` (racemic) [Example 162, 2-Amino-N-{1-[1,8-dichloro-5-(1,1-dioxidothiomorpholin-4-yl)imidazo[1,5-a]pyridin-6-yl]ethyl}pyrazolo[1,5-a]pyrimidine-3-carboxamide trifluoroacetate salt], the figures for the IC50 in assay [1], in assay [2] and in assay [3] were below 100 nM, below 500 nM and below 500 nM, respectively.
